From patent US20080220449A1, “Biomarkers and assays for Alzheimer's disease” (OLIGOMERIX, INC., priority 2007, published 2008)
Entries after “also recorded” stand apart in the source; their conditions may differ.

What was measured:
[1] = tested on: soluble tau oligomer; test: Modified ELISA (mAb HT7 capture, biotinylated mAb HT7 reporter) for curcumin effect on tau-oligomer levels in CSF; type: biochemical, human
Procedure: FIG. 6 is a schematic diagram illustrating an exemplary method and assay that utilizes standard and modified ELISA to detect tau-monomer, tau pT217, soluble tau oligomer, and tau-amyloid-beta 1-42 complex. Formation of tau oligomers was analyzed using two different ELISA methods to provide verified data. The “modified” ELISA uses the same monoclonal antibody for capture and detection. Insoluble aggregates are removed in the ELISA procedure during washing steps. Only soluble aggregates of tau, not monomers, are detected with this ELISA because the detection and reporter antibody recognizes an epitope which is present only once within tau. […]
Modified ELISA to determine tau-oligomer levels in CSF: Tau oligomer level was determined using modified sandwich ELISA where mAb HT7 against tau was used for capture and biotinylated mAb HT7 as the reporter. […]
Sample preparation: A 5 mM stock solution of curcumin was prepared in 100% ethanol. […] The incubated samples were diluted to 500 μL in buffer and analyzed for tau-oligomers by modified ELISA as described in FIG. 6. […]
(§1) Data analysis for Example 11 (FIG. 13) and Example 12 (FIG. 14) was measured as a percent decrease in tau-oligomers, upon incubation with curcumin. […]
(§2) FU=(Average fluorescence of triplicate wells for each sample-average fluorescence of the antibody blank wells). […]

[2] = molecular target: T1, tau oligomers containing tau without c-terminal truncation (Homo sapiens, UniProt P10636); test: ELISA with mAb T46 capture and pAb A11 reporter for curcumin effect on tau-oligomer levels in CSF; type: biochemical; settings: same CSF sample from a patient having severe AD; sample preparation as in Example 11
T1 construct: only tau oligomers containing tau without c-terminal truncation would be detected; from tissue; host or cells: cerebrospinal fluid of a severe AD patient (post mortem, New York Brain Bank)
T1 sequence (P10636 1-441 isoform P10636-8): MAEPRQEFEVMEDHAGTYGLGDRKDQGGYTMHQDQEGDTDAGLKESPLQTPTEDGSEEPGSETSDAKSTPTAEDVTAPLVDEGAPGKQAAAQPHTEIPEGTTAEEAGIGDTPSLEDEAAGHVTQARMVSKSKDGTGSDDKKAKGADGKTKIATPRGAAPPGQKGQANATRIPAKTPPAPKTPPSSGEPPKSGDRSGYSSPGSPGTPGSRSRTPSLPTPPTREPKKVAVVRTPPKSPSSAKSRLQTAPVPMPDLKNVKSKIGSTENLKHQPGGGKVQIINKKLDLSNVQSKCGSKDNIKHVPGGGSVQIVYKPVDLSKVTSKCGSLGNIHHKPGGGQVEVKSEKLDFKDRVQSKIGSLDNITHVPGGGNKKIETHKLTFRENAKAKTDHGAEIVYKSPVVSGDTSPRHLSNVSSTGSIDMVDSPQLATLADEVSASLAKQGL
Procedure: Tau oligomer levels based on oligomer conformation was determined using a standard sandwich ELISA where mAb HT7 against tau was used for capture, as mentioned in FIG. 2 (Example 1). After incubation with CSF samples (see FIG. 2 legend) the plates were washed and 100 uL rabbit pAb A11, specific for protein oligomer conformation, was diluted 1000-fold and added to each well. The plate was incubated for one hour at 37° C. and washed. Biotinylated goat anti-rabbit antibody was diluted 10,000-fold in PBST and 50 μL was added to each well. Plates were incubated for 30 min. at 37° C. Detection was done using HRP-neutravidin and QuantaBlu fluorogenic substrate as described for FIG. 2 (Example 1). The results are shown in FIG. 8 (4 severe AD, 5 AD and 3 non-AD CSF samples were tested). Here the assay is specific for tau in association with oligomer conformation and can detect soluble tau oligomers. The combination of a monoclonal antibody against tau with an antibody specific for oligomer conformation is novel. […]
Tau oligomer levels in CSF were determined using antibodies specific for oligomer conformation and tau with intact c-terminus. […]
as §1, §2

In the case of `COc1cc(/C=C/C(=O)CC(=O)/C=C/c2ccc(O)c(OC)c2)ccc1O` [curcumin], the “percent decrease in tau-oligomers upon incubation with curcumin (FIG. 13)” value ([1]; CSF from three different severe AD patients, 5 uL of 20 uM curcumin in total volume of 100 uL, one hour at 37° C.) is reported as “disruption of soluble tau oligomer; also recorded: reduction of tau oligomer levels”, the “percent decrease in tau-oligomers upon incubation with curcumin (FIG. 14, modified ELISA format)” value ([1]; one CSF sample from a patient having severe AD, sample preparation as in Example 11) is reported as “reduction of tau oligomer levels” and the “percent decrease in tau-oligomers upon incubation with curcumin (FIG. 14, mAb T46 / pAb A11 format)” value [2] is reported as “reduction of tau oligomer levels”.
